Results as given in ChEMBL document CHEMBL5244220, “Methyl-containing pharmaceuticals: Methylation in drug design” (Bioorg Med Chem Lett, 2018).

Tests used:
[1] = Half life in rat plasma; assay type: ADME, cell-free
[2] = target: BCR/ABL1 (Mus musculus, UniProt P00520); assay: Inhibition of Bcr-Abl phosphorylation in BALB/c mouse 3T3 by Western blot analysis; assay type: cell-based
[3] = target: Platelet-derived growth factor receptor beta (Mus musculus, UniProt P05622); assay: Inhibition of PDGFR phosphorylation in BALB/c mouse 3T3 by Western blot analysis; assay type: cell-based
[4] = target: cAMP-dependent protein kinase (PKA) (Homo sapiens, UniProt P22694+P17612+P22612); assay: Inhibition of PKA (unknown origin); assay type: protein assay
[5] = target: Protein kinase C (PKC); assay: Inhibition of PKC (unknown origin); assay type: protein assay, Homo sapiens
[6] = system: Aspergillus fumigatus; assay: Antifungal activity against Aspergillus fumigatus assessed as inhibition of fungal growth; assay type: functional
[7] = Apparent permeability across apical to basolateral side in human Caco-2 cells; assay type: ADME, cell-based
[8] = Aqueous solubility of compound; assay type: physicochemical
[9] = Oral bioavailability in Sprague-Dawley rat at 2 mg/kg; assay type: ADME, organism-based; conditions: in vivo
[10] = Oral bioavailability in Beagle dog at 0.5 mg/kg; assay type: ADME, organism-based, Canis lupus familiaris; conditions: in vivo
[11] = target: T1, 3-hydroxy-3-methylglutaryl-coenzyme A reductase (Rattus norvegicus, UniProt P51639); assay: Inhibition of rat liver HMG-CoA reductase pre incubated for 5 mins followed by substrate addition using NADPH as substrate by scintillation counter analysis; assay type: tissue-based
T1 sequence (P51639 whole entry): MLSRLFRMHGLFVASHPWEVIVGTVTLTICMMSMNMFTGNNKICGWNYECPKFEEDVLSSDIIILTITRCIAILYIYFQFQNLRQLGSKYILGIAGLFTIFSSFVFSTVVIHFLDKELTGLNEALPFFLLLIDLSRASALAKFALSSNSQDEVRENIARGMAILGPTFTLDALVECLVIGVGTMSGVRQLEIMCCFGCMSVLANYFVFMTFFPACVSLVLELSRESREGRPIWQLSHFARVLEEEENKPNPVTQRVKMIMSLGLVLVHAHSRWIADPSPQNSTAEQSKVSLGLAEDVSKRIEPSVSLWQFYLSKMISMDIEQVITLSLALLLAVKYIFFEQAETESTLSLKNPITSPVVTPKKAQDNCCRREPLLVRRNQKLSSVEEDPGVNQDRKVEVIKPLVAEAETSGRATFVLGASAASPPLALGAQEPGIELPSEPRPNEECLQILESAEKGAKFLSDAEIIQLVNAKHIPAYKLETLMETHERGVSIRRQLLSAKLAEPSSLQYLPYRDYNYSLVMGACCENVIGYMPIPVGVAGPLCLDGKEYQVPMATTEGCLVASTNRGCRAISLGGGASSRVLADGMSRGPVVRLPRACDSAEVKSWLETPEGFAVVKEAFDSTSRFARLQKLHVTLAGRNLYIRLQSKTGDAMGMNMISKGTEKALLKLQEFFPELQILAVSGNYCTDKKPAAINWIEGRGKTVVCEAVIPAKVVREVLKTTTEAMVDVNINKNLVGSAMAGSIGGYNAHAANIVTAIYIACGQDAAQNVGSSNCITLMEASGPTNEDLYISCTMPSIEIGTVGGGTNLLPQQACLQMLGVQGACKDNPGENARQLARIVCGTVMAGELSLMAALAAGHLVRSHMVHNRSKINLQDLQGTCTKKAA

[12] = target: T2, Orexin/Hypocretin receptor type 1 (Homo sapiens, UniProt O43613); assay: Antagonist activity at human OX1R by FLIPR assay
T2 sequence (O43613 whole entry): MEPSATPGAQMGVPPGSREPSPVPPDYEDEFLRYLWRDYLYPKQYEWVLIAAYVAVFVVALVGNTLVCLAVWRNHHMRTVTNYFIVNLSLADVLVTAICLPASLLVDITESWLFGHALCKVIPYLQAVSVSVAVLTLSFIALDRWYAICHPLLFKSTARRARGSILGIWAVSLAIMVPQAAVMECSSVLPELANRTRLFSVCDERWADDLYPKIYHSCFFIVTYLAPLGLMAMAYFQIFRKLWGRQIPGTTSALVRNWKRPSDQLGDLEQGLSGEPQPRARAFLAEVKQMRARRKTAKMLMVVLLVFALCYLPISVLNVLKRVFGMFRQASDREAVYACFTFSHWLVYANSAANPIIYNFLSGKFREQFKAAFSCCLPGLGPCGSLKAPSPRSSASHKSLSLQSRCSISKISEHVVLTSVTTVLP

[13] = Oral bioavailability in rat; assay type: ADME, organism-based; conditions: in vivo
[14] = target: GABA-A receptor; anion channel; assay: Positive allosteric modulator activity at human GABAA receptor measured by [35S]TBPS based functional assay; assay type: protein-complex assay
[15] = target: T3, Orexin receptor type 2 (Homo sapiens, UniProt O43614); assay: Antagonist activity at human OX2R by FLIPR assay
T3 sequence (O43614 whole entry): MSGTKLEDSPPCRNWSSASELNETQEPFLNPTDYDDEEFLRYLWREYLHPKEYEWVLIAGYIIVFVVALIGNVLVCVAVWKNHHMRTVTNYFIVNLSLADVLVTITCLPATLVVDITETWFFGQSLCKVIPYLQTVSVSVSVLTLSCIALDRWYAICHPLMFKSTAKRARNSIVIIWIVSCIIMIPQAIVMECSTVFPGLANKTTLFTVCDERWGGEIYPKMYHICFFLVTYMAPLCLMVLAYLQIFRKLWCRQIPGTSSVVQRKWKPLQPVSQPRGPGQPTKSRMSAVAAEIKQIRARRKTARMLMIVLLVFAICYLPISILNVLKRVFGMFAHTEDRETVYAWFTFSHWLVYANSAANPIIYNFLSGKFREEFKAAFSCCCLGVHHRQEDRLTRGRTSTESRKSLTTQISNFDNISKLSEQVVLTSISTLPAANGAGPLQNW

[16] = Half life in Sprague-Dawley rat plasma at 20 mg/kg, po; assay type: ADME, organism-based
[17] = clinical; conditions: human, plasma, po, 100 mg
[18] = Terminal half life in po dosed mouse; assay type: ADME, organism-based; conditions: in vivo, read-out: beta t1/2 (converted)
[19] = Terminal half life in po dosed rat; assay type: ADME, organism-based; conditions: in vivo, read-out: beta t1/2 (converted)
[20] = Terminal half life in po dosed dog; assay type: ADME, organism-based, Canis lupus familiaris; conditions: in vivo, read-out: beta t1/2 (converted)
[21] = Terminal half life in po dosed human; assay type: ADME, organism-based; conditions: in vivo, read-out: beta t1/2 (converted)

Chain of Platelet-derived growth factor receptor beta (P05622 whole entry): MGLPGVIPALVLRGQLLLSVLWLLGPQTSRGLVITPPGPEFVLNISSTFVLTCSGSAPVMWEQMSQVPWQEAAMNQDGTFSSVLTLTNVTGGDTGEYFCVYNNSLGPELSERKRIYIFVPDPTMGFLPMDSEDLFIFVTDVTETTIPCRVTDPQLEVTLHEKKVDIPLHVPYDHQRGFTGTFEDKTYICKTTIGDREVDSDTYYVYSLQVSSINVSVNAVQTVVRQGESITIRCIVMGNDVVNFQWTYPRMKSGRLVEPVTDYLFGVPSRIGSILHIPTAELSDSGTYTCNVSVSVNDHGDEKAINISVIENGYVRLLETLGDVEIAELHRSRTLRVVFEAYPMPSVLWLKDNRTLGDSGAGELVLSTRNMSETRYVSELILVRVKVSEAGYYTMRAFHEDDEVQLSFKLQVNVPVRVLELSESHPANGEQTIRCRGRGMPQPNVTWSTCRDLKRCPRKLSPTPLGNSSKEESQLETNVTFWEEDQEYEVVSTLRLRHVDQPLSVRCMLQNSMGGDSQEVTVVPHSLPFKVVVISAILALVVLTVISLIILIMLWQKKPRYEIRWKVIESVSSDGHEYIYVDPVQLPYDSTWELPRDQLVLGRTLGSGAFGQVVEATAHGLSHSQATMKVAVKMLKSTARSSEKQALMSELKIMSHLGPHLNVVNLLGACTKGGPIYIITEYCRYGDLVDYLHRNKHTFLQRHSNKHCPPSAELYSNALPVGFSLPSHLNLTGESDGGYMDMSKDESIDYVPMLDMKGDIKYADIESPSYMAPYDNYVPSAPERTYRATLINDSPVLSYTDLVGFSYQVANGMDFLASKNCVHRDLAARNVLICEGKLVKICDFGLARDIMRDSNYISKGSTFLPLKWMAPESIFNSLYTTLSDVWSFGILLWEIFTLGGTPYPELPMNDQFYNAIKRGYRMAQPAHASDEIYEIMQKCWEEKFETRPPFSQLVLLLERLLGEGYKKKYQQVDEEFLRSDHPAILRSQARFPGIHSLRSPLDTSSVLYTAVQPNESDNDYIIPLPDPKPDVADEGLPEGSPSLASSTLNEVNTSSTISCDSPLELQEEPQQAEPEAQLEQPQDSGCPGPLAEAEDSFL
Chain of BCR/ABL1 (P00520 whole entry): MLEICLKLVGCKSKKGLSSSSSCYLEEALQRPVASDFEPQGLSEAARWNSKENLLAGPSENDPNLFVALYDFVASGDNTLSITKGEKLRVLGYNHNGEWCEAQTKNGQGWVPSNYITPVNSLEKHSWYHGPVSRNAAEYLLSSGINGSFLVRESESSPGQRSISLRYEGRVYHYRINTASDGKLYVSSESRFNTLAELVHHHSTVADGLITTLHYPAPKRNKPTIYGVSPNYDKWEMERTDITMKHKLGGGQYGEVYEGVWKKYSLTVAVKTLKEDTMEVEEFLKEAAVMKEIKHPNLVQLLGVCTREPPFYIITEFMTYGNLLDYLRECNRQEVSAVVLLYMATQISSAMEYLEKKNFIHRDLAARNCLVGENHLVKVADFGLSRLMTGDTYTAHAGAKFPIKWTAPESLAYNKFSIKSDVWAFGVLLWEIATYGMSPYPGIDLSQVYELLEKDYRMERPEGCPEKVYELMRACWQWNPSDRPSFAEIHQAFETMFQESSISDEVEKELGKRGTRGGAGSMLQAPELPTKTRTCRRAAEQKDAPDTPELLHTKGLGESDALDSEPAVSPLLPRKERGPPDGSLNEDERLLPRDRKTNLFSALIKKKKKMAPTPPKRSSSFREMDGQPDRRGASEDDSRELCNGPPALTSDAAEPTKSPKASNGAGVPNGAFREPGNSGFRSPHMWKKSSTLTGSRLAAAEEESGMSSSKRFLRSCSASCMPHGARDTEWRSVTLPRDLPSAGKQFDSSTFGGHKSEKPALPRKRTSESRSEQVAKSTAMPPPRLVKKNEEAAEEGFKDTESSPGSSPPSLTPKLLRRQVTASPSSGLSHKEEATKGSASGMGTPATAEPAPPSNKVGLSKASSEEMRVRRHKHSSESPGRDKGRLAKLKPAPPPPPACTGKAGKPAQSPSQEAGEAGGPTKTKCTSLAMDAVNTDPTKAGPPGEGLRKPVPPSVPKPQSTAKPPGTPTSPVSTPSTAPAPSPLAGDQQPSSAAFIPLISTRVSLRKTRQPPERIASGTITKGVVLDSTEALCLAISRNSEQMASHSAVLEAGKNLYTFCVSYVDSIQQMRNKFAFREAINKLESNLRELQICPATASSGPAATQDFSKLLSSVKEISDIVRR
Chain of BCR/ABL1 (Q6PAJ1 whole entry, further chain): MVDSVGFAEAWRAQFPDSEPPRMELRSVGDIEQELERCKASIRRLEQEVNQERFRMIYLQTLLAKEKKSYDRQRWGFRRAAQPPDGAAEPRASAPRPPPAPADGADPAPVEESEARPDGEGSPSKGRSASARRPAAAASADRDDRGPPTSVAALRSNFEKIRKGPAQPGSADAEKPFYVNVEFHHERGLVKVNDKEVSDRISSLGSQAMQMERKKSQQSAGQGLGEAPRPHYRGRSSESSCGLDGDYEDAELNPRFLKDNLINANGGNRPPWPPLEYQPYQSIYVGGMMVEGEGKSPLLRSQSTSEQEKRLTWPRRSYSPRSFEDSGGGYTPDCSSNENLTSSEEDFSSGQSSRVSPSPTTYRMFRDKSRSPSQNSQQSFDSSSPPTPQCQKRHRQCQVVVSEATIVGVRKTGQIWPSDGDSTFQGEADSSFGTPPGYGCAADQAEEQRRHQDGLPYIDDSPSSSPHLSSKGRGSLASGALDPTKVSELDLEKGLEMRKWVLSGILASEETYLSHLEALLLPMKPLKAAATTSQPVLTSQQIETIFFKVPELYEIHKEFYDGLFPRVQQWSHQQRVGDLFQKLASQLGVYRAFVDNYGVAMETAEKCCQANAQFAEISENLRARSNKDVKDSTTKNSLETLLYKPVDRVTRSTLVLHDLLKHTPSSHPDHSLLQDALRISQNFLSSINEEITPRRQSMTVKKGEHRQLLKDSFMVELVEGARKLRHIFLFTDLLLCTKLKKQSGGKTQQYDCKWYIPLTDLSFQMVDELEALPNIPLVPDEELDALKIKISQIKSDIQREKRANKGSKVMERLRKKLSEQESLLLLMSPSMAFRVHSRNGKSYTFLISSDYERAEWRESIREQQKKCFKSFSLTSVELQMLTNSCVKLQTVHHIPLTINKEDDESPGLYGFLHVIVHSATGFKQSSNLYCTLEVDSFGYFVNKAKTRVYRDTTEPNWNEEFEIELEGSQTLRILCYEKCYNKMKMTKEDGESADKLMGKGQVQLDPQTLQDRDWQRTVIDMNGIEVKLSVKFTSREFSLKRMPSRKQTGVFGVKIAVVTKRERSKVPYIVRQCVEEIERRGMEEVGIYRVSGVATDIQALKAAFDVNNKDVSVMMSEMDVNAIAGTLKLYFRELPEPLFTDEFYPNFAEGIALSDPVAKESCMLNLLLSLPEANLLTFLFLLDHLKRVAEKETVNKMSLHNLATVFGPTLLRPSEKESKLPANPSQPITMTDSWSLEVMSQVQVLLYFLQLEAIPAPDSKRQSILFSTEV

SMILES: Cc1ccc(-c2ncc(Cl)cc2-c2ccc(S(C)(=O)=O)cc2)cn1 [ETORICOXIB]
- half-life [1]: 2 h

SMILES: CN1CCN(Cc2ccc(C(=O)Nc3cccc(Nc4nccc(-c5cccnc5)n4)c3)cc2)CC1
- IC50 [2]: 0.1 µM
- IC50 [3]: 0.2 µM
- IC50 [4]: > 100 µM
- IC50 [5]: > 100 µM

SMILES: OC(Cn1cncn1)(Cn1cncn1)c1ccc(F)cc1
- MIC [6]: > 50 µg/mL

SMILES: O=c1[nH]n(Cc2ccncc2)c(=O)c2c(=O)c3ccc(Cl)cc3[nH]c12
- Papp A→B [7]: 0.2 ×10⁻⁶ cm/s

SMILES: Cc1ccc(-c2ncccn2)c(C(=O)N2C[C@H](COc3ccc(F)cn3)CC[C@H]2C)c1 [FILOREXANT]
- solubility [8]: 192 µM
- bioavailability [9]: 25%
- bioavailability [10]: 26%

SMILES: CC[C@H](C)C(=O)O[C@H]1C[C@@H](C)C=C2C=C[C@H](C)[C@H](CC[C@@H]3C[C@@H](O)CC(=O)O3)[C@H]21 [LOVASTATIN]
- IC50 [11]: 0.0022 µM

SMILES: COc1cccc(OC)c1C(=O)N1CCCN(c2nc3ccc(Cl)cc3s2)CC1
- Ki [12]: 0.15 µM

SMILES: CC(c1ccncc1)n1[nH]c(=O)c2[nH]c3cc(Cl)ccc3c(=O)c2c1=O (configuration not stated)
- solubility [8]: > 290 µg/mL
- bioavailability [13]: 30%

SMILES: CC(=O)[C@H]1CCC2C3CC[C@H]4C[C@](C)(O)CC[C@]4(C)C3CC[C@@]21C (some centres not stated)
- IC50 [14]: 0.08 µM

SMILES: Cc1ccc(-n2nccn2)c(C(=O)N2CCC[C@@H](COc3ccc(F)cn3)C2)c1
- Ki [12]: 0.096 µM
- Ki [15]: 0.029 µM

SMILES: Cc1ccc(-n2nccn2)c(C(=O)N2C[C@H](COc3ccc(F)cn3)CC[C@H]2C)c1
- solubility [8]: < 24 µM
- bioavailability [9]: < 10%

SMILES: Cc1ccc(-c2cc(C(F)(F)F)nn2-c2ccc(S(N)(=O)=O)cc2)cc1 [CELECOXIB]
- half-life [16]: 3.5 h
- half-life [17]: 12 h

SMILES: CC(=O)[C@H]1CCC2C3CC[C@H]4C[C@H](O)CC[C@]4(C)C3CC[C@@]21C (some centres not stated)
- IC50 [14]: 0.051 µM

SMILES: O=c1[nH]nc(CN2CCO[C@H](OCc3cc(C(F)(F)F)cc(C(F)(F)F)c3)[C@@H]2c2ccc(F)cc2)[nH]1
- half-life [18]: 3 h
- half-life [19]: 3 h
- half-life [20]: 3 h
- half-life [21]: 9 h

SMILES: Cc1ccc(NC(=O)c2ccc(CN3CCN(C)CC3)cc2)cc1Nc1nccc(-c2cccnc2)n1 [IMATINIB]
- IC50 [3]: 0.05 µM
